Paper PMC8612341, “Cyclic ^68Ga-Labeled Peptides for Specific Detection of Human Angiotensin-Converting Enzyme 2” (Journal of Nuclear Medicine, 2021)
Where a SMILES comes first, the peptide text is derived from it. Bridges are numbered along the chain shown (N, C = ends). The star is where a group is joined. NOTA = O=C(O)CN1CCN(CC(=O)O)CCN(CC(=O)*)CC1

Tests used:
[1] = molecular target: T1, ACE2 (Homo sapiens, UniProt Q9BYF1); assay: ACE2 inhibition assay (SensoLyte 390 ACE2 Activity Assay Kit, fluorimetric, AnaSpec); format: biochemical; conditions: for IC50: nonlinear fit of 6-point dilution series, Fig. 2D
T1 construct: purchased AnaSpec AS-72086
T1 sequence (Q9BYF1 18-805): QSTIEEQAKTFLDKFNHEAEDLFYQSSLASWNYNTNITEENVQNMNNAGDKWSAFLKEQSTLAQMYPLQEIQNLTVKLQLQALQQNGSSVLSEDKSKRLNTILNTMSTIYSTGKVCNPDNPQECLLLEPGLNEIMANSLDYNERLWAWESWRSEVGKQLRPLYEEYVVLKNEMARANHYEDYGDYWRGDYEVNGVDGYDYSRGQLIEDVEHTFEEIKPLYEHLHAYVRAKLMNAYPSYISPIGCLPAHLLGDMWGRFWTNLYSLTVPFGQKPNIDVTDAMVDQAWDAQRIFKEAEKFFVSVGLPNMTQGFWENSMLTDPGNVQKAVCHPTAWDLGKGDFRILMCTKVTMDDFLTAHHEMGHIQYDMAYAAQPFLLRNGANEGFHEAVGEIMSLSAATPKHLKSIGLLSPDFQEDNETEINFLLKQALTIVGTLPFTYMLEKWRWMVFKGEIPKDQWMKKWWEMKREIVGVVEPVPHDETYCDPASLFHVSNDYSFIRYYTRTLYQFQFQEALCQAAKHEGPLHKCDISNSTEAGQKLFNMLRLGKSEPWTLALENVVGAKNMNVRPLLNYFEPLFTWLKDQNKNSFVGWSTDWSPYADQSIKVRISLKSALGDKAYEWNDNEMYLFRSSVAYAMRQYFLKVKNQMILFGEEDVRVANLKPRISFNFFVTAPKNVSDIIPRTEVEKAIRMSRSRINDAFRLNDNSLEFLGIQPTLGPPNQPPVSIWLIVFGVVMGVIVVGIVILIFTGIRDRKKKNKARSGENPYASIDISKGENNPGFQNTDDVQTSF
Procedure: Six DX600-derived peptides, named NOTA-PEP1 to NOTA-PEP6 (cyclic vs. noncyclic, with triglycine, aminocaproate, and polyethylene glycol linkers), were studied using a commercially available ACE2 inhibition assay according to the manufacturer’s instructions (SensoLyte 390 ACE2 Activity Assay Kit *Fluorimetric*, AS-72086; AnaSpec). Each peptide inhibitor was first tested at 4 concentrations. Initial velocities were determined relative to the inhibitor free reaction. Subsequently, IC50 values were derived from nonlinear fits of saturation curves of a 6-point dilution series of peptide inhibitors.

[2] = molecular target: T1, ACE2; parameters: method as in earlier work; conditions: vs. ACE and carboxypeptidase A; ref 30 (Huang et al.); cited from earlier work
[3] = fluorometric ACE2 inhibition assay (AnaSpec)

Row | Compound | IC50 [1, 3] [nM] | Change of observed ACE2 IC50 on addition of tris(2-carboxyethyl)phosphine (TCEP) ([1]; TCEP reduces the disulfide bridge (producing linear NOTA-PEP5), Fig. 2E) | ACE2 inhibition compared with parent DX600 peptide ([1]; fluorometric ACE2 inhibition assay (AnaSpec), Figs. 2C and 2D) | Specificity for ACE2 [2]
1 | CC(=O)NCC(=O)N[C@@H](CC(=O)O)C(=O)N[C@@H](Cc1ccc(O)cc1)C(=O)N[C@@H](CO)C(=O)N[C@@H](Cc1c[nH]cn1)C(=O)N[C@H]1CSSC[C@@H](C(=O)N[C@H](C(=O)N[C@@H](Cc2ccc(O)cc2)C(=O)N2CCC[C@H]2C(=O)N[C@@H](CC(=O)O)C(=O)N2CCC[C@H]2C(=O)N[C@@H](CCC(=O)O)C(=O)NCC(=O)NCC(=O)NCC(N)=O)[C@@H](C)O)NC(=O)[C@H](CCCCN)NC(=O)[C@H](Cc2c[nH]c3ccccc23)NC(=O)[C@H](Cc2c[nH]c3ccccc23)NC(=O)[C@@H]2CCCN2C(=O)[C@H](Cc2ccc(O)cc2)NC(=O)[C@H](Cc2ccc(O)cc2)NC(=O)[C@H](CCCNC(=N)N)NC(=O)[C@H](CC(C)C)NC(=O)[C@@H]2CCCN2C(=O)[C@H](CO)NC1=O [DX600, reference compound] | 114 | – | – | specificity for ACE2 vs. ACE and carboxypeptidase A
2 | CC(C)C[C@@H]1NC(=O)[C@@H]2CCCN2C(=O)[C@H](CO)NC(=O)[C@@H](NC(=O)[C@H](Cc2c[nH]cn2)NC(=O)[C@H](CO)NC(=O)[C@H](Cc2ccc(O)cc2)NC(=O)[C@H](CC(=O)O)NC(=O)CNC(=O)CNC(=O)CNC(=O)CNC(=O)CN2CCN(CC(=O)O)CCN(CC(=O)O)CC2)CSSC[C@@H](C(=O)N[C@H](C(=O)N[C@@H](Cc2ccc(O)cc2)C(=O)N2CCC[C@H]2C(=O)N[C@@H](CC(=O)O)C(=O)N2CCC[C@H]2C(=O)N[C@@H](CCC(=O)O)C(=O)NCC(=O)NCC(=O)NCC(N)=O)[C@@H](C)O)NC(=O)[C@H](CCCCN)NC(=O)[C@H](Cc2c[nH]c3ccccc23)NC(=O)[C@H](Cc2c[nH]c3ccccc23)NC(=O)[C@@H]2CCCN2C(=O)[C@H](Cc2ccc(O)cc2)NC(=O)[C@H](Cc2ccc(O)cc2)NC(=O)[C@H](CCCNC(=N)N)NC1=O [NOTA-PEP2] ({NOTA}-GGGGDYSHCSPLRYYPWWKCTYPDPEGGG-NH2; disulfide 9-20) | 101 | – | – | –
3 | CC(C)C[C@H](NC(=O)[C@@H]1CCCN1C(=O)[C@H](CO)NC(=O)[C@H](CS)NC(=O)[C@H](Cc1c[nH]cn1)NC(=O)[C@H](CO)NC(=O)[C@H](Cc1ccc(O)cc1)NC(=O)[C@H](CC(=O)O)NC(=O)CNC(=O)CNC(=O)CNC(=O)CNC(=O)CN1CCN(CC(=O)O)CCN(CC(=O)O)CC1)C(=O)N[C@@H](CCCNC(=N)N)C(=O)N[C@@H](Cc1ccc(O)cc1)C(=O)N[C@@H](Cc1ccc(O)cc1)C(=O)N1CCC[C@H]1C(=O)N[C@@H](Cc1c[nH]c2ccccc12)C(=O)N[C@@H](Cc1c[nH]c2ccccc12)C(=O)N[C@@H](CCCCN)C(=O)N[C@@H](CS)C(=O)N[C@H](C(=O)N[C@@H](Cc1ccc(O)cc1)C(=O)N1CCC[C@H]1C(=O)N[C@@H](CC(=O)O)C(=O)N1CCC[C@H]1C(=O)N[C@@H](CCC(=O)O)C(=O)NCC(=O)NCC(=O)NCC(N)=O)[C@@H](C)O [NOTA-PEP1] ({NOTA}-GGGGDYSHCSPLRYYPWWKCTYPDPEGGG-NH2) | 2400 | – | – | –

Now from value to molecule, other results behind:

Row | IC50 [1, 3] [nM] | Change of observed ACE2 IC50 on addition of tris(2-carboxyethyl)phosphine (TCEP) ([1]; TCEP reduces the disulfide bridge (producing linear NOTA-PEP5), Fig. 2E) | ACE2 inhibition compared with parent DX600 peptide ([1]; fluorometric ACE2 inhibition assay (AnaSpec), Figs. 2C and 2D) | Compound | Specificity for ACE2 [2]
4 | 67.6 | – | – | CC(C)C[C@@H]1NC(=O)[C@@H]2CCCN2C(=O)[C@H](CO)NC(=O)[C@@H](NC(=O)[C@H](Cc2c[nH]cn2)NC(=O)[C@H](CO)NC(=O)[C@H](Cc2ccc(O)cc2)NC(=O)[C@H](CC(=O)O)NC(=O)CNC(=O)CCCCCNC(=O)CN2CCN(CC(=O)O)CCN(CC(=O)O)CC2)CSSC[C@@H](C(=O)N[C@H](C(=O)N[C@@H](Cc2ccc(O)cc2)C(=O)N2CCC[C@H]2C(=O)N[C@@H](CC(=O)O)C(=O)N2CCC[C@H]2C(=O)N[C@@H](CCC(=O)O)C(=O)NCC(=O)NCC(=O)NCC(N)=O)[C@@H](C)O)NC(=O)[C@H](CCCCN)NC(=O)[C@H](Cc2c[nH]c3ccccc23)NC(=O)[C@H](Cc2c[nH]c3ccccc23)NC(=O)[C@@H]2CCCN2C(=O)[C@H](Cc2ccc(O)cc2)NC(=O)[C@H](Cc2ccc(O)cc2)NC(=O)[C@H](CCCNC(=N)N)NC1=O [NOTA-PEP4] | –
5 | – | markedly increased | nearly identical to DX600 | CC(C)C[C@@H]1NC(=O)[C@@H]2CCCN2C(=O)[C@H](CO)NC(=O)[C@@H](NC(=O)[C@H](Cc2c[nH]cn2)NC(=O)[C@H](CO)NC(=O)[C@H](Cc2ccc(O)cc2)NC(=O)[C@H](CC(=O)O)NC(=O)CNC(=O)CCOCCOCCNC(=O)CN2CCN(CC(=O)O)CCN(CC(=O)O)CC2)CSSC[C@@H](C(=O)N[C@H](C(=O)N[C@@H](Cc2ccc(O)cc2)C(=O)N2CCC[C@H]2C(=O)N[C@@H](CC(=O)O)C(=O)N2CCC[C@H]2C(=O)N[C@@H](CCC(=O)O)C(=O)NCC(=O)NCC(=O)NCC(N)=O)[C@@H](C)O)NC(=O)[C@H](CCCCN)NC(=O)[C@H](Cc2c[nH]c3ccccc23)NC(=O)[C@H](Cc2c[nH]c3ccccc23)NC(=O)[C@@H]2CCCN2C(=O)[C@H](Cc2ccc(O)cc2)NC(=O)[C@H](Cc2ccc(O)cc2)NC(=O)[C@H](CCCNC(=N)N)NC1=O [NOTA-PEP6] | –
